Here are results for 14 compounds from US7495023B2, “Thio semicarbazone and semicarbozone inhibitors of cysteine proteases and methods of their use” (The Regents of the University of California, priority 2002, dated 2009).

Series [1] has as its target T. cruzi cathepsin L-like protease (cruzain) (Trypanosoma cruzi, UniProt P25779). In words: biochemical. Here is the method:
IC50 Determinations. Inhibitors were screened for effectiveness against the T. cruzi cathepsin L-like protease (cruzain) using purified recombinant protein. Cruzain (1 nM) was incubated with 20-50000 nM inhibitor in 100 mM sodium acetate-5 mM DTT buffer (pH 5.50, buffer A) for 5 min at room temperature. […] The increase in fluorescence (excitation at 355 nm and emission at 460 nm) was followed with an automated microtiter plate spectrofluorimeter (Molecular Devices, spectraMAX Gemini). Inhibitor stock solutions were prepared at 20 mM in DMSO, and serial dilutions were made in DMSO (0.7% DMSO in assay). Controls were performed using enzyme alone and enzyme with DMSO. IC50 values were determined graphically using inhibitor concentrations in the linear portion of a plot of inhibition versus log [I] (seven concentrations were tested, and at least two were in the linear range).

A further series addresses cruzain (Trypanosoma cruzi, UniProt P25779). It counts as biochemical. As to conditions: incubation 90 s to 24 h. Here is the method: The time dependence of inhibition was determined by incubating cruzain with inhibitors, DMSO, or enzyme alone at room temperature for time points between 90 s and 24 h. The enzymatic activity was determined as above.
A known irreversible inhibitor, K002 (morpholino urea-Phe-homoPhe-vinyl sulfone benzene; Axys Pharmaceuticals Inc., South San Francisco, Calif.), and a known reversible covalent inhibitor, leupeptin, were used as controls for the thio semicarbazones.

The subject of a further series is T. cruzi (Y strain). The series is described as follows: Anti-trypanosomal cell culture assay, T. cruzi-infected J774 macrophages. It counts as cell-based. Conditions: inhibitor 10 μM, cultures up to 30 days. Here is the method: Drug Screening in Cell Culture. Mammalian cells are routinely cultured in RPMI-1640 medium supplemented with 5-10% heat-inactivated fetal calf serum (FCS) at 37° C. in 5% CO2. The Y strain of T. cruzi is maintained by serial passage in bovine embryo skeletal muscle (BESM) cells. Infectious trypomastigotes are collected from culture supernatants. For drug assays, J774 macrophages were irradiated (5000 rad) and plated onto six-well tissue culture plates 24 h prior to infection with ˜106 trypomastigotes/well. […] Inhibitor stocks (10 mM) in DMSO were stored at 4° C. J774 monolayers treated with a blank containing DMSO are used as a negative control, and monolayers treated with a known trypanocidal inhibitor, 10 μM N-methyl piperazine-Phe-homoPhe-vinyl sulfone phenyl (N-Pip-F-hF-VSPh) acted as a positive control (Engel et al., J. Exp. Med., 188:725-734 (1998)). RPMI medium with or without inhibitor is replaced every 48 h. Cultures are maintained for up to 30 days and monitored daily by contrast phase microscopy. […] The comparative effectiveness of each inhibitor was estimated from plots of the duration of the intracellular cycle of T. cruzi (days) in treated vs untreated control wells.

Where [2] appears, read: 5 min incubation, room temperature, pH 5.50, read-out: IC50 against cruzain.

Read-outs that look alike come from different tables or passages of the source.

Sequence of cruzain (P25779 123-467): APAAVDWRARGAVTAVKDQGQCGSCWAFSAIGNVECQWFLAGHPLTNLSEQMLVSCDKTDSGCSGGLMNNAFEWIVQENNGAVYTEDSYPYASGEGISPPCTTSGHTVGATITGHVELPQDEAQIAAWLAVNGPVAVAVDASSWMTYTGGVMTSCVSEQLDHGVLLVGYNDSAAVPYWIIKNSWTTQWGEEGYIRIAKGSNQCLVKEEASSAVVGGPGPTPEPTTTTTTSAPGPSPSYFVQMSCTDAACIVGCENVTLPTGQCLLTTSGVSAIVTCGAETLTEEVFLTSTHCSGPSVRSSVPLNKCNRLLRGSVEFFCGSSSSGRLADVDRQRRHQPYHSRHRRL
Sequence of T. cruzi cathepsin L-like protease (cruzain) (P25779 123-467): as above

Regarding `CCC(NNC(N)=S)c1cccc(Br)c1` (centres unmarked) [Compound 7a, 1-(3′-bromophenyl)propylaminothiourea], the “cruzain inhibitory activity, in words” value in series [1] is “poor activity”. Also, the “time dependence of cruzain inhibition” value at cruzain is recorded as “showed time dependency”.

For the compound `FC(F)(F)c1cccc(NC(=S)N2CCC(c3cccc(Cl)c3)=N2)c1` [Compound 5e, 3-(3-Chlorophenyl)-2-pyrazoline-1-(N-3-tri-fluoromethylphenyl)thiocarboxamide], on cruzain, the “time dependence of cruzain inhibition” value was “showed time dependency”.

For the compound `CC(=O)N[C@@H](CC(C)C)C(=O)N[C@@H](CC(C)C)C(=O)N[C@H](C=O)CCCNC(=N)N` [leupeptin, reference compound], the “time dependence of cruzain inhibition” value at cruzain was “rapidly time-dependent”.

One may read the melting point as the temperature, or range, at which the solid turns liquid. `CC1CN(C(N)=S)N=C1c1cccc(C(F)(F)F)c1` (centres unmarked) [Compound 4h, 3-(3-Trifluoromethylphenyl)-4-methyl-2-pyrazoline-1-thiocarboxamide]: the melting point lay within 120.8 to 121.9 °C. Also, the “cruzain inhibitory activity, in words” value in series [1] is recorded as “better than that of 1i”. Moreover, in the series on T. cruzi (Y strain), the “effect on T. cruzi in cell culture (trypanocidal / trypanostatic / inactive)” value is listed as “trypanocidal”.

`CC(=NNC(N)=S)c1cc(C(F)(F)F)cc(C(F)(F)F)c1` [Compound 3f, 3′,5′-Bis(trifluoromethyl)acetophenone Thio Semicarbazone]: in series [1], the “cruzain inhibitory activity, in words” value was “better IC50 values than 1i”. The “effect on T. cruzi in cell culture (trypanocidal / trypanostatic / inactive)” value in the series on T. cruzi (Y strain) was “trypanostatic”.

A word on the IC50: it is the concentration that inhibits the measured activity by half. Turning to `CCC(=NNC(N)=S)c1cccc(Cl)c1` [Compound 2a, 3′-Chloropropiophenone Thio Semicarbazone], in series [1], the IC50 worked out at 0.22 µM. For the same compound, the “effect on T. cruzi in cell culture (trypanocidal / trypanostatic / inactive)” value in the series with T. cruzi (Y strain) is recorded as “trypanocidal”.

For the compound `CC(=NNC(N)=S)c1cccc(C(F)(F)F)c1` [Compound 3d, 3-Trifluoromethylacetophenone Thio Semicarbazone], the “effect on T. cruzi in cell culture (trypanocidal / trypanostatic / inactive)” value with T. cruzi (Y strain) is “trypanostatic”.

As for `NC(=S)N1CCC(c2ccc(Cl)c(Cl)c2)=N1` [Compound 4e, 3-(3,4-Dichlorophenyl)-2-pyrazoline-1-thiocarboxamide], the melting point lay in the range of 199.3 to 201.4 °C. Also, in series [1], the “cruzain inhibitory activity, in words” value is “better than that of 1i”. The “effect on T. cruzi in cell culture (trypanocidal / trypanostatic / inactive)” value in the series on T. cruzi (Y strain) is given as “trypanocidal”.

As to `NC(=S)N1CCC(c2cccc(Cl)c2)=N1` [Compound 4c, 3-(3-Chlorophenyl)-2-pyrazoline-1-thiocarboxamide], the “effect on T. cruzi in cell culture (trypanocidal / trypanostatic / inactive)” value in the series with T. cruzi (Y strain) was “inactive”.

`CCC(=NNC(N)=S)c1cccc(C(F)(F)F)c1` [Compound 2b, 3′-Trifluoromethylpropiophenone Thio Semicarbazone]: the “cruzain inhibitory activity, in words” value in series [1] was “better IC50 values than 1i”. In addition, the 50% inhibitory concentration (IC50) in series [1] (setting [2]) came out at 0.05 µM. In addition, the “effect on T. cruzi in cell culture (trypanocidal / trypanostatic / inactive)” value with T. cruzi (Y strain) was “trypanocidal”.

For `CC1CN(C(N)=S)N=C1c1cccc(Cl)c1` (centres unmarked) [Compound 4d, 3-(3-Chlorophenyl)-4-methyl-2-pyrazoline-1-thiocarboxamide], the melting point was 131.3 °C (dec.). Further, the “effect on T. cruzi in cell culture (trypanocidal / trypanostatic / inactive)” value with T. cruzi (Y strain) was “trypanocidal”.

Take `NC(=S)N1CCC(c2cccc(C(F)(F)F)c2)=N1` [Compound 4g, 3-(3-Trifluoromethylphenyl)-2-pyrazoline-1-thiocarboxamide]: the melting point was in the range of 159.2 to 161.1 °C. In addition, the “cruzain inhibitory activity, in words” value in series [1] is “better than that of 1i”. Further, the “effect on T. cruzi in cell culture (trypanocidal / trypanostatic / inactive)” value in the series with T. cruzi (Y strain) is “inactive”.

As for `CC(=NNC(N)=S)c1ccc(Cl)c(Cl)c1` [Compound 3h, 3′,4′-Dichloroacetophenone Thio Semicarbazone], the “cruzain inhibitory activity, in words” value in series [1] is recorded as “better IC50 values than 1i”. For the same compound, the “effect on T. cruzi in cell culture (trypanocidal / trypanostatic / inactive)” value in the series with T. cruzi (Y strain) is “trypanocidal”.

Take `S=C(Nc1cccc(Cl)c1)N1CCC(c2cccc(Br)c2)=N1` [Compound 5d, 3-(3-Bromophenyl)-2-pyrazoline-1-(IL3-chlorophenyl)thiocarboxamide]: the melting point is 197.5 to 198.8 °C. In addition, the IC50 in series [1] (setting [2]) fell in the range of 1 to 2 µM. In addition, the “effect on T. cruzi in cell culture (trypanocidal / trypanostatic / inactive)” value in the series with T. cruzi (Y strain) is recorded as “no effect on the parasites”.
